From patent US8377473B2, “Slow release magnesium composition and uses thereof” (Magceutics, Inc., priority 2009, dated 2013)

What was measured:
[1] = Magnesium content in the cerebrospinal fluid; conditions: 24 days of treatment, approximately 50 mg/kg/day elemental magnesium via drinking water
Excerpt: (§1) Statistical analysis: All data were approximated with a normal distribution. […] One-way analysis of variance was used to analyze the cerebrospinal fluid data. GraphPad prism was used for data analysis (version 5.00, GraphPad software Inc.).

rats [2] = test: Margin of safety: incidence of diarrhea with magnesium preparations in drinking water; conditions: elemental magnesium via drinking water for 4 days, non-linear regression
Procedure: Animals: Adult male Sprague-Dawley rats were obtained from Wei Tong Li Hua Beijing, China. Rats were individually-housed with free access to standard food and water under a 12:12 h reversed light-dark cycle, with light onset at 8:00 p.m. […] All experimental procedures were approved by the Tsinghua University Committees on Animal Care.
(Magceutics Inc., USA), Magnesium chloride and glycinate (Modern Eastern Fine Chemical, China), magnesium gluconate and citrate (Sigma-Aldrich, Germany). Lactose was obtained from Biobasic Inc (Beijing, China).
The magnesium dose dissolved in the daily intake volume of water was determined based on intake of ˜30 ml/day/rat. Animals were supplied with the magnesium supplemented drinking water for 4 days, after which time the number of animals that developed diarrhea was monitored and calculated as a percentage of the total number of animals in the respective group.
as §1

rats [3] = conditions: young and aged rats, cited from earlier work
[4] = cited from earlier work
diabetic patients = conditions: nearly 1 g of magnesium daily for 1 month; cited from earlier work

Molecule: [Cl-].[Cl-].[Mg+2] [magnesium chloride]
- magnesium concentration in cerebrospinal fluid ([Mg2+]CSF) [1]: relatively limited effect
- TD50 (toxic dose required to induce diarrhea in 50% of animals) (rats [2]): 90.0 mg/kg/day

Molecule: [O]=[Mg] [magnesium oxide]
- cognitive function (rats [3]; food containing 2% magnesium oxide for 8 days): some sign of improvement
- side-effect (rats [3]; food containing 2% magnesium oxide): diarrhea and weight loss
- magnesium absorption rate ([4]; Firoz and Graber 2001): about 4%
- bioavailability ([4]; Ranade and Somberg 2001): 4%
- increase of serum magnesium level (diabetic patients): about 10%
- metabolic control (diabetic patients): only minor improvement

Molecule: magnesium gluconate
- TD50 (toxic dose required to induce diarrhea in 50% of animals) (rats [2]): 99.7 mg/kg/day
